From patent US10183944B2 (Asana Biosciences, LLC, priority 2011, dated 2019) come the findings set out here.

Read-outs that look alike come from different tables or passages of the source. Where only a bound is given, the exact number is not on record here.

In test [1] the target is JAK2 (Homo sapiens (Human), UniProt O60674). Description: Inhibition of enzymatic JAK2 kinase activity (TR-FRET). Type of test: biochemical. To be noted: read-out: IC50 JAK. In outline:
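TR-FRET read-out (Eu antibody donor, Ulight poly Glu-Tyr acceptor, 665/615 nm ratio) after a 60 min RT kinase reaction with ATP, begun following 30 min compound–enzyme preincubation. Stopped by EDTA; inhibition expressed as 100 minus % activity of positive control.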
(In general: TR-FRET usually uses a lanthanide donor and a delayed reading to cut background.)

Test [2] deals with RBL2H3 cells. Nature of the test: Degranulation assay: β-hexosaminidase release during immune complex mediated degranulation. It counts as cell-based, rat. To be noted: Assay Protocol B (96 well format); for inhibition at 1 µM: read-out: Degranulation % inhibition at 1 μM; for EC50: read-out: Degranulation EC50. The method, boiled down:
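Fluorometric β-NAG read-out (Ex 355, Em 460 nm; 30 min, RT) of supernatant after DNP-BSA stimulation (45–60 min) of anti-DNP IgE-sensitized RBL2H3 cells. Compounds (0.5% DMSO) added 15 min before antigen; degranulation expressed as % β-hexosaminidase release or inhibition.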

Test [3] has as its target Syk (356-635 amino acids) catalytic domain (Homo sapiens (Human), UniProt P43405). Nature of the test: Inhibition of enzymatic Syk kinase activity (radiometric). It counts as biochemical. To be noted: read-out: IC50 Syk. In outline:
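Radiometric filter-binding format: 32P transfer from γ-32P-ATP onto pG4T, scintillation-counted after acid washes of P81 paper. Syk kinase domain (356-635), 0.035–7.5 ng per reaction, was exposed to compound for 30 minutes at room temperature before a 10-minute, 30° C. reaction with ATP (100 μM stock). Inhibition derived from counts with versus without compound.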

The mark [4] stands for this setting: Rattus norvegicus, RBL-2H3, 1 μM.

Chain of JAK2 (O60674 808-1132): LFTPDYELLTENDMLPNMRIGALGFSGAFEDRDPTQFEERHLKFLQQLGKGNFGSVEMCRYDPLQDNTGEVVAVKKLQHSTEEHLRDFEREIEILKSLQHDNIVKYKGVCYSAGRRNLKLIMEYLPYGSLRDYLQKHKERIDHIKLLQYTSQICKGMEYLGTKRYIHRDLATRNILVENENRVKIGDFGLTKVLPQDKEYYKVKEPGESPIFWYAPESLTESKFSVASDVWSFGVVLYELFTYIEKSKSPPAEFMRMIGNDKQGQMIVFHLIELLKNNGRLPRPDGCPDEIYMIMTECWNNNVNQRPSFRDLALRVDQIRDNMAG

With `N#CCC1CCN(c2nc(Nc3ccc(N4CCNCC4)nc3)c3c(=O)[nH]ncc3n2)CC1` [Example 231, 2-(1-(5-oxo-4-((6-(piperazin-1-yl)pyridin-3-yl)amino)-5,6-dihydropyrimido[4,5-d]pyridazin-2-yl)piperidin-4-yl)acetonitrile], the half-inhibitory concentration (IC50) – broadly, the concentration that inhibits the measured activity by half – in test [1] is below 100 nM; in test [3], below 50 nM. Moreover, the inhibition (as a rule, the share of the control response that was lost under treatment) at 1 µM in test [2] (setting [4]) was determined as 0%. For the same compound, in test [2] (Rattus norvegicus, RBL-2H3), the EC50 (commonly the concentration at which the effect is half-maximal) was 367 nM.

On to `N=Cc1nc(N2CCCCCC2)nc(Nc2ccc(N3CCCC(CC(=O)O)C3)cc2)c1C(N)=O` (centres unmarked) [Example 232], for which the IC50 in test [1] is below 10 nM; in test [3], below 50 nM. Further, the “Degranulation % inhibition at 1 μM” value in test [2] (1 μM) was 0%. In addition, the EC50 in test [2] was determined as 619 nM.

In the case of `O=C(O)CC1CCCN(c2ccc(Nc3nc(N4CCCCCC4)nc4cn[nH]c(=O)c34)cc2)C1` (centres unmarked) [Example 233, 2-(1-(4-((2-(azepan-1-yl)-5-oxo-5,6-dihydropyrimido[4,5-d]pyridazin-4-yl)amino)phenyl)piperidin-3-yl)acetic acid], the IC50 in test [1] and in test [3] was below 10 nM each time. For the same compound, in test [2] (setting [4]), the inhibition at 1 µM worked out at 20%. The EC50 in test [2] (Rattus norvegicus, RBL-2H3) amounted to 174 nM.

With `O=c1[nH]ncc2nc(N3CCCCCC3)nc(Nc3ccc(N4CCC(Cc5nn[nH]n5)CC4)cc3)c12` [Example 244, 4-((4-(4-((2H-tetrazol-5-yl)methyl)piperidin-1-yl)phenyl)amino)-2-(azepan-1-yl)pyrimido[4,5-d]pyridazin-5(6H)-one], the IC50 in test [1] and in test [3] was below 10 nM in each case. For the same compound, the inhibition at 1 µM in test [2] (setting [4]) was 23%. The EC50 in test [2] (Rattus norvegicus, RBL-2H3) was 306 nM.

For the compound `CN1CCN(c2ccc(Nc3nc(N4CCC(CC#N)CC4)nc4cn[nH]c(=O)c34)cc2)CC1` [Example 248, 2-(1-(4-((4-(4-methylpiperazin-1-yl)phenyl)amino)-5-oxo-5,6-dihydropyrimido[4,5-d]pyridazin-2-yl)piperidin-4-yl)acetonitrile], the IC50 in test [1] and in test [3] was below 10 nM in each case. The inhibition at 1 µM in test [2] (setting [4]) is 99%. Further, the EC50 in test [2] (Rattus norvegicus, RBL-2H3) stood at 19 nM.

Regarding `O=C(O)CN1CCC(Oc2ccc(Nc3nc(N4CCCCCC4)nc4cn[nH]c(=O)c34)cc2)CC1` [Example 254, 2-(4-(4-((2-(azepan-1-yl)-5-oxo-5,6-dihydropyrimido[4,5-d]pyridazin-4-yl)amino)phenoxy)piperidin-1-yl) acetic acid], the IC50 in test [1] is below 50 nM; in test [3], below 10 nM. The inhibition at 1 µM in test [2] (setting [4]) turned out to be 24%. In addition, the EC50 in test [2] (Rattus norvegicus, RBL-2H3) is 1200 nM.

Turning to `COCCN1CCN(c2ccc(Nc3nc(N4CCC(CC#N)CC4)nc4cn[nH]c(=O)c34)cc2)CC1` [Example 256, 2-(1-(4-((4-(4-(2-methoxyethyl)piperazin-1-yl)phenyl)amino)-5-oxo-5,6-dihydropyrimido[4,5-d]pyridazin-2-yl)piperidin-4-yl)acetonitrile], the IC50 was below 50 nM in test [1] and below 10 nM in test [3]. For the same compound, the inhibition at 1 µM in test [2] (setting [4]) worked out at 73%. For the same compound, the EC50 in test [2] (Rattus norvegicus, RBL-2H3) amounted to 33 nM.

`N#CCC1CCN(c2nc(Nc3ccc(N4CCN(CCCO)CC4)cc3)c3c(=O)[nH]ncc3n2)CC1` [Example 261, 2-(1-(4-((4-(4-(3-hydroxypropyl)piperazin-1-yl)phenyl)amino)-5-oxo-5,6-dihydropyrimido[4,5-d]pyridazin-2-yl)piperidin-4-yl)acetonitrile]: the figures for the IC50 in test [1] and in test [3] were below 50 nM and below 10 nM, respectively. Also, the inhibition at 1 µM in test [2] (setting [4]) came to 87%. In addition, the EC50 in test [2] (Rattus norvegicus, RBL-2H3) stood at 39 nM.

As for `N#CCC1CCN(c2nc(Nc3ccc(N4CCCN(CCO)CC4)cc3)c3c(=O)[nH]ncc3n2)CC1` [Example 264, 2-(1-(4-((4-(4-(2-hydroxyethyl)-1,4-diazepan-1-yl)phenyl)amino)-5-oxo-5,6-dihydropyrimido[4,5-d]pyridazin-2-yl)piperidin-4-yl)acetonitrile], the half-inhibitory concentration (IC50) in test [1] and in test [3] was below 10 nM in each case. Also, the inhibition at 1 µM in test [2] (setting [4]) came to 75%. Besides, the EC50 in test [2] (Rattus norvegicus, RBL-2H3) worked out at 54 nM.

As to `CC(C)(CO)N1CCN(c2ccc(Nc3nc(N4CCCCCC4)nc4cn[nH]c(=O)c34)cc2)CC1` [Example 265, 2-(azepan-1-yl)-4-((4-(4-(1-hydroxy-2-methylpropan-2-yl)piperazin-1-yl)phenyl)amino)pyrimido[4,5-d]pyridazin-5(6H)-one], the IC50 in test [1] and in test [3] was below 10 nM in each case. For the same compound, the inhibition at 1 µM in test [2] (setting [4]) was 79%. Besides, the EC50 in test [2] (Rattus norvegicus, RBL-2H3) is 30 nM.

`CC(C)(CO)N1CCN(c2ccc(Nc3nc(N4CCC(CC#N)CC4)nc4cn[nH]c(=O)c34)cc2)CC1` [Example 266, 2-(1-(4-((4-(4-(1-hydroxy-2-methylpropan-2-yl)piperazin-1-yl)phenyl)amino)-5-oxo-5,6-dihydropyrimido[4,5-d]pyridazin-2-yl)piperidin-4-yl) acetonitrile]: the IC50 in test [1] is below 50 nM; in test [3], below 10 nM. The inhibition at 1 µM in test [2] (setting [4]) came out at 99%. Also, the concentration giving a half-maximal response (EC50) in test [2] (Rattus norvegicus, RBL-2H3) stood at 10 nM.

Take `CN(C)CCN1CCN(c2ccc(Nc3nc(N4CCCCCC4)nc4cn[nH]c(=O)c34)cc2)CC1` [Example 267, 2-(azepan-1-yl)-4-((4-(4-(2-(dimethylamino)ethyl)piperazin-1-yl)phenyl)amino)pyrimido[4,5-d]pyridazin-5(6H)-one]: the concentration for half-maximal inhibition (IC50) in test [1] and in test [3] was below 10 nM in each case. Besides, the inhibition at 1 µM in test [2] (setting [4]) amounted to 90%. Also, the EC50 in test [2] (Rattus norvegicus, RBL-2H3) came to 21 nM.

Take `CN(C)CCN1CCN(c2ccc(Nc3nc(N4CCC(CC#N)CC4)nc4cn[nH]c(=O)c34)cc2)CC1` [Example 268, 2-(1-(4-((4-(4-(2-(dimethylamino)ethyl)piperazin-1-yl)phenyl)amino)-5-oxo-5,6-dihydropyrimido[4,5-d]pyridazin-2-yl)piperidin-4-yl)acetonitrile]: the IC50 in test [1] is below 50 nM; in test [3], below 10 nM. Besides, in test [2] (setting [4]), the inhibition at 1 µM was determined as 93%. In addition, in test [2] (Rattus norvegicus, RBL-2H3), the EC50 was 20 nM.

With `O=c1[nH]ncc2nc(N3CCCCCC3)nc(Nc3ccc(N4CCN(CC(O)CO)CC4)cc3)c12` (centres unmarked) [Example 273, 2-(azepan-1-yl)-4-((4-(4-(2,3-dihydroxypropyl)piperazin-1-yl)phenyl)amino)pyrimido[4,5-d]pyridazin-5(6H)-one], the IC50 in test [1] and in test [3] was below 10 nM each time. Further, in test [2] (setting [4]), the inhibition at 1 µM turned out to be 91%. Besides, the EC50 in test [2] (Rattus norvegicus, RBL-2H3) turned out to be 21 nM.

Take `N#CCC1CCN(c2nc(Nc3ccc(N4CCN(CC(O)CO)CC4)cc3)c3c(=O)[nH]ncc3n2)CC1` (centres unmarked) [Example 274, 2-(1-(4-((4-(4-(2,3-dihydroxypropyl)piperazin-1-yl)phenyl)amino)-5-oxo-5,6-dihydropyrimido[4,5-d]pyridazin-2-yl)piperidin-4-yl)acetonitrile]: the IC50 in test [1] and in test [3] was below 10 nM in each case. For the same compound, in test [2] (setting [4]), the inhibition at 1 µM turned out to be 59%. Also, the EC50 in test [2] (Rattus norvegicus, RBL-2H3) stood at 81 nM.

Take `O=c1[nH]ncc2nc(N3CCCCCC3)nc(Nc3ccc(N4CCN(CCF)CC4)cc3)c12` [Example 275, 2-(azepan-1-yl)-4-((4-(4-(2-fluoroethyl)piperazin-1-yl)phenyl)amino) pyrimido[4,5-d]pyridazin-5(6H)-one]: the IC50 in test [1] and in test [3] was below 10 nM throughout. The inhibition at 1 µM in test [2] (setting [4]) came to 73%. The EC50 in test [2] (Rattus norvegicus, RBL-2H3) is 15 nM.

Take `N#CCC1CCN(c2nc(Nc3ccc(N4CCN(CCF)CC4)cc3)c3c(=O)[nH]ncc3n2)CC1` [Example 276, 2-(1-(4-((4-(4-(2-fluoroethyl)piperazin-1-yl)phenyl)amino)-5-oxo-5,6-dihydropyrimido[4,5-d]pyridazin-2-yl)piperidin-4-yl)acetonitrile]: the IC50 is below 50 nM in test [1] and below 10 nM in test [3]. The inhibition at 1 µM in test [2] (setting [4]) worked out at 91%. The half-maximal effective concentration (EC50) in test [2] (Rattus norvegicus, RBL-2H3) worked out at 24 nM.

As for `O=c1[nH]ncc2nc(N3CCCCCC3)nc(Nc3ccc(N4CCCC(O)C4)nc3)c12` (centres unmarked) [Example 277, 2-(azepan-1-yl)-4-((6-(3-hydroxypiperidin-1-yl)pyridin-3-yl)amino)pyrimido[4,5-d]pyridazin-5(6H)-one], the 50% inhibitory concentration (IC50) is below 50 nM in test [1] and below 10 nM in test [3]. The inhibition at 1 µM in test [2] (setting [4]) was 74%. In addition, in test [2] (Rattus norvegicus, RBL-2H3), the EC50 amounted to 42 nM.

For `CN1CCN(C(=O)COc2ccc(Nc3nc(N4CCCCCC4)nc4cn[nH]c(=O)c34)cc2)CC1` [Example 283, 2-(azepan-1-yl)-4-((4-(2-(4-methylpiperazin-1-yl)-2-oxoethoxy)phenyl)amino)pyrimido[4,5-d]pyridazin-5(6H)-one], the IC50 in test [1] and in test [3] was below 10 nM each time. For the same compound, in test [2] (setting [4]), the inhibition at 1 µM came out at 71%. Further, the EC50 in test [2] (Rattus norvegicus, RBL-2H3) was 39 nM.

`N#CCC1CCN(c2nc(Nc3ccc(N4CCCC(CO)C4)cc3)c3c(=O)[nH]ncc3n2)CC1` (centres unmarked) [Example 284, 2-(1-(4-((4-(3-(hydroxymethyl)piperidin-1-yl)phenyl)amino)-5-oxo-5,6-dihydropyrimido[4,5-d]pyridazin-2-yl)piperidin-4-yl)acetonitrile]: the IC50 in test [1] and in test [3] was below 10 nM each time. In test [2] (setting [4]), the inhibition at 1 µM was 92%. Besides, the EC50 in test [2] (Rattus norvegicus, RBL-2H3) was determined as 21 nM.
